SMILES strings stand for the structures.

The test system of this data set is HaCaT cells. The data set is described as follows: Relief of 5-FU proliferative toxicity to HaCaT cells (CCK-8 cell survival). The data set is classed as cell-based. Conditions: 5-Fu 20 μM, HaCaT cells. The procedure: The cultured skin cell HaCaTs were digested, counted, and inoculated into a 96-well plate with 5000-10000 cells in each well. After 24 h of culture, the wells were divided into Group of blank solvent control, Group of 5-FU, Group of 5-FU+thymidine derivative, Group of 5-FU+the combination of thymidine derivative and uridine derivative. […] adding a solution of 5-FU and a solution of thymidine derivative (the final concentrations of 5-FU and thymidine derivative are shown in Table 3, the solution of thymidine is an aqueous solution, while the solutions of thymidine derivatives are all DMSO solutions); Group of 5-FU+the combination of thymidine derivative and uridine derivative: adding a solution of 5-FU and a mixed solution of thymidine derivative and uridine derivative (the final concentrations of the solution of 5-FU and the mixed solution of thymidine derivative+uridine derivative are shown in Table 3, the solution of thymidine is an aqueous solution, while the mixed solutions of thymidine derivative+uridine derivative are all DMSO solutions); Group of blank solvent control: adding the same type of solution as those of the corresponding Group of 5-FU or Group of 5-FU+thymidine derivative (or the mixed solution of thymidine derivative+uridine derivative) in equal volume. Group of blank solvent control was used as control to exclude the influence of the solvents in Group of 5-FU and Group of 5-FU+thymidine derivative (or the mixed solution of thymidine derivative+uridine derivative) on the results. After additional 48 hours of culture, a Cell Counting Kit-8 (CCK-8) detection kit (C0037, purchased from Shanghai Beyotime Biotechnology) is used to determine the cell survival rate, thereby calculating the proliferative toxicity of 5-Fu/5-DFUR on cells and the relieving effect of the thymidine derivative (or the mixed solution of thymidine derivative+uridine derivative) on the proliferative toxicity. Using GraphPad Prism 6.0 software, the results were statistically analyzed by t-test and plotted.
Table 3 lists the combinations of 5-FU and thymidine derivative (or the mixed solution of thymidine derivative+uridine derivative), and the corresponding experimental results (wherein the data in the column of cell survival indicate the corresponding increased percentage of the cell survivals of Group of 5-FU+thymidine derivative or Group of 5-FU+the combination of thymidine derivative and uridine derivative compared with the Group of 5-FU). FIGS. 3-10 list the experimental results of several representative compounds.
The effect of thymidine derivative or a combination of thymidine derivative and uridine derivative on relieving the proliferative toxicity of a chemotherapeutical drug (5-FU) to HaCaT cells was tested according to the method in Examples 2-29. The test thymidine derivative or the combination of thymidine derivative and uridine derivative, as well as the final concentration of the test compounds were shown in Table 7.
Table 7 lists the combinations of 5-FU and thymidine derivative (or the mixed solution of thymidine derivative+uridine derivative), and the corresponding experimental results (wherein the data in the column of cell survival indicate the corresponding increased percentage of the cell survivals of Group of 5-FU+thymidine derivative or Group of 5-FU+the combination of thymidine derivative and uridine derivative compared with the Group of 5-FU). FIGS. 15-21 list the experimental results of several exemplary compounds.

[1] abbreviates: selected compound final concentration 12.5 μM.
[2] abbreviates: selected compound final concentration 25 μM.
Where [3] appears, read: selected compound final concentration 50 μM.
[4] abbreviates: selected compound final concentration 100 μM.
The mark [5] stands for this setting: selected compound final concentration 0.8 μM.
The mark [6] stands for this setting: selected compound final concentration 1.6 μM.
Setting [7] is: selected compound final concentration 3.13 μM.
[8] abbreviates: selected compound final concentration 6.25 μM.

As for `Cc1cn([C@H]2C[C@H](O)[C@@H](COC(=O)C3CCn4c(C(=O)c5ccccc5)ccc43)O2)c(=O)[nH]c1=O` (stereo partly drawn) [T34], the “Cell Survival Rate (increased percentage of cell survival compared with the Group of 5-FU)” value under setting [1] is listed as 28%-35%, the “Cell Survival Rate (increased percentage of cell survival compared with the Group of 5-FU)” value under setting [2] was 43%-51%, the “Cell Survival Rate (increased percentage of cell survival compared with the Group of 5-FU)” value under setting [3] is on record as 69%-77% and the “Cell Survival Rate (increased percentage of cell survival compared with the Group of 5-FU)” value under setting [4] is reported as 67%-74%.
For `COc1ccc2c(c1)c(CC(=O)OC[C@H]1O[C@@H](n3cc(C)c(=O)[nH]c3=O)C[C@@H]1O)c(C)n2C(=O)c1ccc(Cl)cc1` [T38], the “Cell Survival Rate (increased percentage of cell survival compared with the Group of 5-FU)” value is recorded as 13%-21% under setting [5]; 29%-38% under setting [6]; 38%-47% under setting [7]; 46%-55% under setting [8]; 53%-60% under setting [1]; 58%-65% under setting [2]. Besides, the “Cell Survival Rate (increased percentage of cell survival compared with the Group of 5-FU)” value under setting [3] is 67%-75% and the “Cell Survival Rate (increased percentage of cell survival compared with the Group of 5-FU)” value under setting [4] is on record as 55%-63%.
With `Cc1cn([C@H]2C[C@H](O)[C@@H](COC(=O)Cc3ccccc3Nc3c(Cl)cccc3Cl)O2)c(=O)[nH]c1=O` [T39], the “Cell Survival Rate (increased percentage of cell survival compared with the Group of 5-FU)” value by setting is: under setting [5], 36%-43%; under setting [6], 58%-66%; under setting [7], 64%-71%; under setting [8], 67%-74%; under setting [1], 65%-72%; under setting [2], 69%-77%. Besides, the “Cell Survival Rate (increased percentage of cell survival compared with the Group of 5-FU)” value reads like this: under setting [3], 69%-77%; under setting [4], 75%-83%.
Take `COc1ccc2cc([C@H](C)C(=O)O[C@H]3C[C@H](n4cc(C)c(=O)[nH]c4=O)O[C@@H]3CO)ccc2c1` [T42]: the “Cell Survival Rate (increased percentage of cell survival compared with the Group of 5-FU)” value runs as follows: under setting [5], 38%-45%; under setting [6], 59%-67%; under setting [7], 85%-93%; under setting [8], 85%-92%; under setting [1], 58%-66%; under setting [2], 68%-75%. Further, under setting [3], the “Cell Survival Rate (increased percentage of cell survival compared with the Group of 5-FU)” value is given as 66%-74%.
As to `Cc1cn([C@H]2C[C@H](OC(=O)C(C)c3cccc(Oc4ccccc4)c3)[C@@H](CO)O2)c(=O)[nH]c1=O` (stereo partly drawn) [T43], the “Cell Survival Rate (increased percentage of cell survival compared with the Group of 5-FU)” value is recorded as 23%-31% under setting [5]; 49%-56% under setting [6]; 72%-79% under setting [7]; 91%-98% under setting [8]; 125%-133% under setting [1]; 99%-106% under setting [2]. For the same compound, the “Cell Survival Rate (increased percentage of cell survival compared with the Group of 5-FU)” value is given as 100%-107% under setting [3] and 34%-41% under setting [4].
On to `Cc1cn([C@H]2C[C@H](OC(=O)[C@@H](C)c3ccc(CC(C)C)cc3)[C@@H](CO)O2)c(=O)[nH]c1=O` [T44], for which the “Cell Survival Rate (increased percentage of cell survival compared with the Group of 5-FU)” value runs as follows: under setting [8], 13%-20%; under setting [1], 27%-35%; under setting [2], 53%-60%; under setting [3], 69%-76%.

For the origin of these results see US20230405003A1, “APPLICATION OF THYMIDINE DERIVATIVE IN PREPARATION OF DRUGS” (ONQUALITY PHARMACEUTICALS CHINA LTD., priority 2020, published 2023).
